# Read-outs that look alike come from different tables or passages of the source.
# Legend:
# [1] = test system: SW-620; test: NCI 60 cell line five dose, Colon Cancer
# [2] = test system: UO-31; test: NCI 60 cell line five dose, Renal Cancer
# [3] = test system: SNB-75; test: NCI 60 cell line five dose, CNS Cancer
# [4] = test system: HCT-15; test: NCI 60 cell line five dose, Colon Cancer
# [5] = test system: HT29; test: NCI 60 cell line five dose, Colon Cancer
# [6] = test system: M9ENL AML cell lines; conditions: read-out: LC50; M9ENL AML cell lines; after 24 hours of drug exposure
# [7] = test system: K-562; test: NCI 60 cell line five dose, Leukemia
# [8] = test system: UACC-62; test: NCI 60 cell line five dose, Melanoma
# [9] = test system: HS 578T; test: NCI 60 cell line five dose, Breast Cancer; conditions: HS578T
# [10] = test system: SK-OV-3; test: NCI 60 cell line five dose, Ovarian Cancer
# [11] = test system: DU-145; test: NCI 60 cell line five dose, Prostate Cancer
# [12] = test system: NCI-H322M; test: NCI 60 cell line five dose, Non-Small Cell Lung Cancer
# [13] = test system: MCF7; test: NCI 60 cell line five dose, Breast Cancer
# [14] = test system: 786-0; test: NCI 60 cell line five dose, Renal Cancer
# [15] = test system: M14; test: NCI 60 cell line five dose, Melanoma
# [16] = test system: HL-60(TB)
# [17] = test system: SK-MEL-28; test: NCI 60 cell line five dose, Melanoma
# [18] = test system: PC-3; test: NCI 60 cell line five dose, Prostate Cancer
# [19] = test system: SF-268; test: NCI 60 cell line five dose, CNS Cancer
# [20] = test system: SK-MEL-2; test: NCI 60 cell line five dose, Melanoma
# [21] = test system: NCI-H522; test: NCI 60 cell line five dose, Non-Small Cell Lung Cancer
# [22] = test system: RXF 393; test: NCI 60 cell line five dose, Renal Cancer
# [23] = test system: MDA-MB-468; test: NCI 60 cell line five dose, Breast Cancer
compound,measurement,setting,value
"C=C1C(=O)O[C@H]2[C@H]1CC/C(COC(=O)NCCCCCCCCNC(=O)OC/C1=C/CC[C@@]3(C)O[C@H]3[C@H]3OC(=O)C(=C)[C@@H]3CC1)=C\CC[C@@]1(C)O[C@@H]21 [JVM 3-62, bis(((1aR,7aS, 10aS, 10bS, E)-1a-Methyl-8-methylene-9-oxo-1a,2,3,6,7,7a,8,9,10a,10b-decahydrooxireno[2′,3′:9,10]cyclodeca[1,2-b]furan-5-yl)methyl)octane-1,8-diyldicarbamate]",Percent Growth,[1]; Log10 Concentration −4.0,−77%
same,Percent Growth,[1]; Log10 Concentration −5.0,−79%
same,Percent Growth,[1]; Log10 Concentration −6.0,−18%
same,Percent Growth,[1]; Log10 Concentration −7.0,91%
same,Percent Growth,[1]; Log10 Concentration −8.0,91%
same,GI50,[1]; molar,239 nM
same,TGI,[1]; molar,6.86E−7
same,CC50,"[1]; read-out: LC50, molar",3370 nM
same,Percent Growth,[2]; Log10 Concentration −4.0,−87%
same,Percent Growth,[2]; Log10 Concentration −5.0,−94%
same,Percent Growth,[2]; Log10 Concentration −6.0,48%
same,Percent Growth,[2]; Log10 Concentration −7.0,90%
same,Percent Growth,[2]; Log10 Concentration −8.0,90%
same,GI50,[2]; molar,880 nM
same,TGI,[2]; molar,2.17E−6
same,CC50,"[2]; read-out: LC50, molar",4900 nM
same,Percent Growth,[3]; Log10 Concentration −4.0,−100%
same,Percent Growth,[3]; Log10 Concentration −5.0,−51%
same,Percent Growth,[3]; Log10 Concentration −6.0,61%
same,Percent Growth,[3]; Log10 Concentration −7.0,78%
same,Percent Growth,[3]; Log10 Concentration −8.0,72%
same,GI50,[3]; molar,1250 nM
same,CC50,"[3]; read-out: LC50, molar",9840 nM
same,Percent Growth,[4]; Log10 Concentration −4.0,83%
same,Percent Growth,[4]; Log10 Concentration −5.0,−90%
same,Percent Growth,[4]; Log10 Concentration −6.0,16%
same,Percent Growth,[4]; Log10 Concentration −7.0,90%
same,Percent Growth,[4]; Log10 Concentration −8.0,91%
same,GI50,[4]; molar,346 nM
same,TGI,[4]; molar,1.41E−6
same,CC50,"[4]; read-out: LC50, molar",4160 nM
same,Percent Growth,[5]; Log10 Concentration −4.0,−84%
same,Percent Growth,[5]; Log10 Concentration −5.0,−80%
same,Percent Growth,[5]; Log10 Concentration −6.0,−33%
same,Percent Growth,[5]; Log10 Concentration −7.0,97%
same,Percent Growth,[5]; Log10 Concentration −8.0,100%
same,GI50,[5]; molar,228 nM
same,CC50,"[5]; read-out: LC50, molar",2270 nM
same,CC50,[6],1000 nM
same,Percent Growth,[7]; Log10 Concentration −4.0,−44%
same,Percent Growth,[7]; Log10 Concentration −5.0,−14%
same,Percent Growth,[7]; Log10 Concentration −6.0,2%
same,Percent Growth,[7]; Log10 Concentration −7.0,107%
same,Percent Growth,[7]; Log10 Concentration −8.0,103%
same,GI50,[7]; molar,349 nM
same,TGI,[7]; molar,1.37E−6
same,CC50,"[7]; read-out: LC50, molar",> 100000 nM
same,Percent Growth,[8]; Log10 Concentration −4.0,−77%
same,Percent Growth,[8]; Log10 Concentration −5.0,−84%
same,Percent Growth,[8]; Log10 Concentration −6.0,−39%
same,Percent Growth,[8]; Log10 Concentration −7.0,87%
same,Percent Growth,[8]; Log10 Concentration −8.0,96%
same,GI50,[8]; molar,197 nM
same,TGI,[8]; molar,4.88E−7
same,CC50,"[8]; read-out: LC50, molar",1720 nM
same,Percent Growth,[9]; Log10 Concentration −4.0,−26%
same,Percent Growth,[9]; Log10 Concentration −5.0,−5%
same,Percent Growth,[9]; Log10 Concentration −6.0,54%
same,Percent Growth,[9]; Log10 Concentration −7.0,90%
same,Percent Growth,[9]; Log10 Concentration −8.0,94%
same,GI50,[9]; molar,1170 nM
same,TGI,[9]; molar,8.25E−6
same,CC50,"[9]; read-out: LC50, molar",> 100000 nM
same,Percent Growth,[10]; Log10 Concentration −4.0,−100%
same,Percent Growth,[10]; Log10 Concentration −5.0,10%
same,Percent Growth,[10]; Log10 Concentration −6.0,101%
same,Percent Growth,[10]; Log10 Concentration −7.0,108%
same,Percent Growth,[10]; Log10 Concentration −8.0,108%
same,GI50,[10]; molar,3640 nM
same,Percent Growth,[11]; Log10 Concentration −4.0,−100%
same,Percent Growth,[11]; Log10 Concentration −5.0,−99%
same,Percent Growth,[11]; Log10 Concentration −6.0,56%
same,Percent Growth,[11]; Log10 Concentration −7.0,105%
same,Percent Growth,[11]; Log10 Concentration −8.0,103%
same,GI50,[11]; molar,1100 nM
same,TGI,[11]; molar,2.30E−6
same,CC50,"[11]; read-out: LC50, molar",4810 nM
same,Percent Growth,[12]; Log10 Concentration −4.0,−91%
same,Percent Growth,[12]; Log10 Concentration −5.0,−51%
same,Percent Growth,[12]; Log10 Concentration −6.0,100%
same,Percent Growth,[12]; Log10 Concentration −7.0,104%
same,Percent Growth,[12]; Log10 Concentration −8.0,107%
same,GI50,[12]; molar,2140 nM
same,Percent Growth,[13]; Log10 Concentration −4.0,−54%
same,Percent Growth,[13]; Log10 Concentration −5.0,−75%
same,Percent Growth,[13]; Log10 Concentration −6.0,−7%
same,Percent Growth,[13]; Log10 Concentration −7.0,80%
same,Percent Growth,[13]; Log10 Concentration −8.0,89%
same,GI50,[13]; molar,221 nM
same,TGI,[13]; molar,8.33E−7
same,CC50,"[13]; read-out: LC50, molar",4300 nM
same,Percent Growth,[14]; Log10 Concentration −4.0,−81%
same,Percent Growth,[14]; Log10 Concentration −5.0,−81%
same,Percent Growth,[14]; Log10 Concentration −6.0,−32%
same,Percent Growth,[14]; Log10 Concentration −7.0,95%
same,Percent Growth,[14]; Log10 Concentration −8.0,95%
same,GI50,[14]; molar,244 nM
same,CC50,"[14]; read-out: LC50, molar",2930 nM
same,Percent Growth,[15]; Log10 Concentration −4.0,−76%
same,Percent Growth,[15]; Log10 Concentration −5.0,−71%
same,Percent Growth,[15]; Log10 Concentration −6.0,−10%
same,Percent Growth,[15]; Log10 Concentration −7.0,95%
same,Percent Growth,[15]; Log10 Concentration −8.0,95%
same,GI50,[15]; molar,272 nM
same,TGI,[15]; molar,8.00E−7
same,CC50,"[15]; read-out: LC50, molar",4530 nM
same,Percent Growth,[16]; Log10 Concentration −4.0,−39%
same,Percent Growth,[16]; Log10 Concentration −5.0,−37%
same,Percent Growth,[16]; Log10 Concentration −6.0,−6%
same,Percent Growth,[16]; Log10 Concentration −7.0,92%
same,Percent Growth,[16]; Log10 Concentration −8.0,103%
same,GI50,[16]; molar,268 nM
same,CC50,"[16]; read-out: LC50, molar",> 100000 nM
same,Percent Growth,[17]; Log10 Concentration −4.0,−71%
same,Percent Growth,[17]; Log10 Concentration −5.0,−77%
same,Percent Growth,[17]; Log10 Concentration −6.0,−37%
same,Percent Growth,[17]; Log10 Concentration −7.0,90%
same,Percent Growth,[17]; Log10 Concentration −8.0,92%
same,GI50,[17]; molar,205 nM
same,TGI,[17]; molar,5.11E−7
same,CC50,"[17]; read-out: LC50, molar",2120 nM
same,Percent Growth,[18]; Log10 Concentration −4.0,−91%
same,Percent Growth,[18]; Log10 Concentration −5.0,−78%
same,Percent Growth,[18]; Log10 Concentration −6.0,21%
same,Percent Growth,[18]; Log10 Concentration −7.0,91%
same,Percent Growth,[18]; Log10 Concentration −8.0,91%
same,GI50,[18]; molar,385 nM
same,TGI,[18]; molar,1.63E−6
same,CC50,"[18]; read-out: LC50, molar",5200 nM
same,Percent Growth,[19]; Log10 Concentration −4.0,−59%
same,Percent Growth,[19]; Log10 Concentration −5.0,−66%
same,Percent Growth,[19]; Log10 Concentration −6.0,50%
same,Percent Growth,[19]; Log10 Concentration −7.0,104%
same,Percent Growth,[19]; Log10 Concentration −8.0,101%
same,GI50,[19]; molar,999 nM
same,TGI,[19]; molar,2.69E−6
same,CC50,"[19]; read-out: LC50, molar",7240 nM
same,Percent Growth,[20]; Log10 Concentration −4.0,−68%
same,Percent Growth,[20]; Log10 Concentration −5.0,−45%
same,Percent Growth,[20]; Log10 Concentration −6.0,36%
same,Percent Growth,[20]; Log10 Concentration −7.0,100%
same,Percent Growth,[20]; Log10 Concentration −8.0,92%
same,GI50,[20]; molar,601 nM
same,TGI,[20]; molar,2.79E−6
same,Percent Growth,[21]; Log10 Concentration −4.0,−66%
same,Percent Growth,[21]; Log10 Concentration −5.0,−75%
same,Percent Growth,[21]; Log10 Concentration −6.0,−57%
same,Percent Growth,[21]; Log10 Concentration −7.0,89%
same,Percent Growth,[21]; Log10 Concentration −8.0,86%
same,GI50,[21]; molar,186 nM
same,TGI,[21]; molar,4.07E−7
same,CC50,"[21]; read-out: LC50, molar",893 nM
same,Percent Growth,[22]; Log10 Concentration −4.0,−76%
same,Percent Growth,[22]; Log10 Concentration −5.0,−92%
same,Percent Growth,[22]; Log10 Concentration −6.0,−82%
same,Percent Growth,[22]; Log10 Concentration −7.0,85%
same,Percent Growth,[22]; Log10 Concentration −8.0,96%
same,GI50,[22]; molar,162 nM
same,TGI,[22]; molar,3.22E−7
same,CC50,"[22]; read-out: LC50, molar",640 nM
same,Percent Growth,[23]; Log10 Concentration −4.0,−70%
same,Percent Growth,[23]; Log10 Concentration −5.0,−81%
same,Percent Growth,[23]; Log10 Concentration −6.0,−43%
same,Percent Growth,[23]; Log10 Concentration −7.0,86%
same,Percent Growth,[23]; Log10 Concentration −8.0,100%
same,GI50,[23]; molar,190 nM
same,TGI,[23]; molar,4.62E−7
same,CC50,"[23]; read-out: LC50, molar",1500 nM
